Consider 5 compounds from patent publication US20040081655A1, “Methods and compositions comprising polycationic compounds” (priority 2001, published 2004).

“Also recorded” adds a separate entry of the source.

The test system of one data set is TNF-α and IL-6. As to the kind of experiment: CpG-ODN-induced systemic production of TNF-α and IL-6 in vivo, serum ELISA (Example 4). The arrangement: species or system Mice C57Bl/6. The settings on record: for production of IL-6 in serum after injection / production of TNF-α in serum after injection: one hour after injection into hind footpads, ELISA. As for the experimental part: Mice were injected into each hind footpad with a total volume of 100 μl (50 μl per footpad), containing the above mentioned compounds. One hour after injection blood was taken from the tail-vein and serum was prepared. The amount of the pro-inflammatory cytokines TNF-α and IL-6 in the sera was determined by cytokine-specific ELISAs according to the manufacturer's instructions (R&D Systems, Inc., Minneapolis, Minn.).
Background: An ELISA detects its analyte on a solid surface through an enzyme-linked reagent.

The test system of a further data set is human dendritic cells. Description: LPS-induced production of pro-inflammatory cytokines by human dendritic cells in vitro (Example 10). The following applies: for LPS-induced production of pro-inflammatory cytokines by human dendritic cells: in vitro, mode of incubation not specified; for production of IL-6 by human dendritic cells / production of TNF-a by human dendritic cells: substance alone (LPS 5 ng/ml; pR60 10 μg/ml; KLK 16, 8 μg/ml; pK 10 μg/ml), culture medium 12 h then substance 12 h.

The test system of data set [1] is CD11c+ sorted BM-DC. As to the kind of experiment: CpG-ODN-induced production of TNF-α and IL-6 by murine BM-DC in vitro, KLK (Example 7). In kind it is cell-based, C57B1/6 mice. The following applies: 24 h. As for the experimental part:
(§1) Murine dendritic cells (DC) were generated from bone-marrow precursor cells of C57Bl/6 mice as previously described (Inaba 1992). Briefly, bone marrow cells were obtained by flushing the femurs and tibias with medium. Cells were depleted of lymphocytes, granulocytes and MHC class II^+cells by Ab-complement-mediated lysis. Dead cells were removed by Ficoll gradient (Ficoll Separating Solution, density […]; Biochrom KG, Germany). The remaining cells (1×10^6/ml) were cultured in 24-well culture plates in high glucose DMEM medium (PAA Laboratories GmbH, Linz, Austria; E 15-009) supplemented with 10% heat-inactivated FCS, 10. mM sodium pyruvate, 2 mM L-glutamine, […] gentamicin, 0.5 mM 2-mercaptoethanol (all supplements from PAA Laboratories GmbH, Linz, Austria), 20 ng/ml GM-CSF and 250 U/ml IL-4. On day 3 of culture, cells were fed with fresh medium. On day 6 of culture, non-adherent cells and loosely adherent aggregates were harvested, washed and re-plated in 6-well culture plates (2×10^6/5 ml). After additional 1 day of culture, non-adherent cells were collected for analyses. […] For in vitro-stimulations, day 7-cultured bone marrow cells were further enriched for CD11c^+ cells (=DC) using magnetic beads (Miltenyi, Bergisch-Gladbach, Germany). The purity of BM-DC was more than 95% as determined by flow cytometry analyses. […] Supernatants were harvested after 24 h and analysed for the production of TNF-α and IL-6 using specific ELISAs.
Murine dendritic cells (DC) were generated from bone-marrow precursor cells of C57B1/6 mice as described in example 5.

For a further data set, the system named is TNF-a and IL-6. Description: BCG/CpG-ODN-induced systemic production of TNF-a and IL-6 in vivo, serum ELISA (Example 8). Set-up: species or system Mice C57Bl/6. The following applies: BCG vaccine and CpG-ODN co-injected with poly-L-arginine; serum one hour after injection. As for the experimental part: Mice were injected subcutaneously into the flank with a total volume of 100 μl, containing the above mentioned compounds. One hour after injection blood was taken from the tail-vein and serum was prepared. The amount of the pro-inflammatory cytokines TNF-a and IL-6 in the sera was determined by cytokine-specific ELISAs according to the manufacturer's instructions (R&D Systems, Inc., Minneapolis, Minn.).

Data set [2] has as its system murine bone-marrow-derived dendritic cells. As to the kind of experiment: LPS-induced production of pro-inflammatory cytokines by murine bone-marrow-derived dendritic cells in vitro (Example 9). The data set is classed as cell-based, C57Bl/6 mice. As for the experimental part: Murine dendritic cells (DC) were generated from bone-marrow precursor cells of C57Bl/6 mice as previously described (Inaba 1992). Briefly, bone marrow cells were obtained by flushing the femurs and tibias with medium. Cells were depleted of lymphocytes, granulocytes and MHC class II^+cells by Ab-complement-mediated lysis. Dead cells were removed by Ficoll gradient (Ficoll Separating Solution, density […]; Biochrom KG, Germany). The remaining cells (1×10^6/ml) were cultured in 24-well culture plates in high glucose DMEM medium (PAA Laboratories GmbH, Linz, Austria; E 15-009) supplemented with 10% heat-inactivated FCS, 10. mM sodium pyruvate, 2 mM L-glutamine, […] gentamicin, 0.5 mM 2-mercaptoethanol (all supplements from PAA Laboratories GmbH, Linz, Austria), 20 ng/ml GM-CSF and 250 U/ml IL-4. On day 3 of culture, cells were fed with fresh medium. On day 6 of culture, non-adherent cells and loosely adherent aggregates were harvested, washed and re-plated in 6-well culture plates (2×10^6/5 ml). After additional 1 day of culture, non-adherent cells were collected for analyses. […] For in vitro-stimulations, day 7-cultured bone marrow cells were further enriched for CD11c^+ cells (=DC) using magnetic beads (Miltenyi, Bergisch-Gladbach, Germany). The purity of BM-DC was more than 95% as determined by flow cytometry analyses.
Murine dendritic cells (DC) were generated from bone-marrow precursor cells of C57Bl/6 mice as described in example 5.

Data set [3] has as its system human monocyte-derived DC. As to the kind of experiment: Poly I:C-induced production of pro-inflammatory cytokines by human DC in vitro (Example 6). In kind it is cell-based. The settings on record: for poly I:C-induced production of pro-inflammatory cytokines by human DC: poly I:C and pR60 together, in vitro; for production of IL-6 by human DC / production of TNF-α by human DC / production of IL-12/p70 by human DC: substance alone, 10 μg/ml, supernatant ELISA. As for the experimental part:
Human DC were generated from monocytes.
To determine, which cytokines are induced/produced by DC upon poly I:C and/or pR stimulation, DC were incubated with different stimuli for 12 and 24 hours, supernatants were harvested, stored at −20° C. and screened for the presence of respective cytokines by specific ELISAs.

In data set [4] the test system is CD11c+ sorted BM-DC. As to the kind of experiment: CpG-ODN-induced production of TNF-α and IL-6 by murine BM-DC in vitro, poly-L-arginine (Example 5). The data set is classed as cell-based, C57Bl/6 mice. The settings on record: 24 h. As to the method:
as §1

Where [5] appears, read: cells pre-incubated with polycationic compound 12 h, then LPS 12 h.
Where [6] appears, read: mixture of LPS and polycationic compound, 12 h.
Where [7] appears, read: mixture of CpG-ODN 1668 (0.5 nmol/ml) and KLK (16, 8 μg/ml).
The mark [8] stands for this setting: substance alone (KLK 16, 8 μg/ml; CpG-ODN 1668 0.5 nmol/ml), supernatant ELISA.
The mark [9] stands for this setting: poly-L-arginine co-injected with OVA257-264-peptide and CpG-ODN, serum one hour after injection.
Where [10] appears, read: cells pre-incubated with poly-L-arginine 12 h, then LPS 12 h.
The mark [11] stands for this setting: mixture of LPS/poly-L-arginine, 12 h.
[12] abbreviates: substance alone (LPS 10 ng/ml; pR60 10 μg/ml), culture medium 12 h then substance 12 h.
Setting [13] is: mixture of pIC (10 μg/ml) and pR (10 μg/ml), 12 and 24 hours.
Where [14] appears, read: mixture of CpG-ODN 1668 (1 nmol/ml) and poly-L-arginine (10 μg/ml).
[15] abbreviates: substance alone (poly-L-arginine 10 μg/ml; CpG-ODN 1668 1 nmol/ml), supernatant ELISA.

Method for human dendritic cells: Human DC were generated from monocytes. Briefly, peripheral blood leukocytes (PBLs) were isolated from buffy coats of healthy volunteers by Ficoll gradient centrifugation. Monocytes were isolated from PBLs using CD14-coated magnetic beads (Miltenyi Biotec Inc., Germany) applied according to the manufacturer's instructions. Using this method, we obtained >95% CD14^+ cells as determined by flow cytometry. These CD14^+ monocytes were cultured in RPMI 1640 medium supplemented with 10% FCS (PAA Laboratories, Linz, Austria), non-essential aminoacids, L-glutamin, gentamicin, sodium pyruvate, 100 ng/ml human GM-CSF and 500 U/ml human IL-4 in 6-well tissue plates for 6-7 days. To this end, the cultures contained >80%. MHC class II^+/CD1a^+ cells (=DC).
Human dendritic cells (DC) were generated as described in example 6. For in vitro-stimulations, day 7-cultured dendritic cells were incubated for 12 h with the indicated compounds. After centrifugation, supernatant was removed, cells were washed once with medium, then fresh medium with the indicated compounds was added, and the cells were incubated for additional 12 h. Supernatants were harvested and analyzed for the production of TNF-a and IL-6 using specific ELISAs.

For the compound `CC[C@H](C)[C@H](NC(=O)[C@@H](NC(=O)[C@@H](N)CO)[C@@H](C)CC)C(=O)N[C@@H](CC(N)=O)C(=O)N[C@@H](Cc1ccccc1)C(=O)N[C@@H](CCC(=O)O)C(=O)N[C@@H](CCCCN)C(=O)N[C@@H](CC(C)C)C(=O)O` [OVA257-264, reference compound], the “production of IL-6 in serum after injection” value in the data set on TNF-α and IL-6 is given as “does not-induce the production of detectable amounts”; in the data set with TNF-α and IL-6 (listed as OVA257-264-peptide) it was “neither the injection of OVA257-264-peptide alone nor in combination with poly-L-arginine led to the induction of significant amounts”. In addition, the “production of TNF-α in serum after injection” value in the data set on TNF-α and IL-6 is reported as “does not-induce the production of detectable amounts”; in the data set on TNF-α and IL-6 (listed as OVA257-264-peptide), “neither the injection of OVA257-264-peptide alone nor in combination with poly-L-arginine led to the induction of significant amounts”.
In the case of “KLKLLLLLKLK [synthetic peptide containing at least 2 KLK-motifs separated by a linker of hydrophobic amino acids]”, in the data set on human dendritic cells (setting [5]), the “LPS-induced production of IL-6 by human dendritic cells” value was “inhibited” and the “LPS-induced production of TNF-a by human dendritic cells” value is listed as “inhibited”. In the data set on human dendritic cells, the “LPS-induced production of pro-inflammatory cytokines by human dendritic cells” value was “decrease”, the “production of IL-6 by human dendritic cells” value is listed as “could not detect any” and the “production of TNF-a by human dendritic cells” value is “could not detect any”. Also, in the data set on human dendritic cells (setting [6]), the “LPS-induced production of IL-6 by human dendritic cells” value is given as “inhibited” and the “LPS-induced production of TNF-a by human dendritic cells” value is reported as “inhibited”. Moreover, in the data set with CD11c+ sorted BM-DC [1] (setting [7]), the “CpG-ODN 1668-induced production of IL-6 by murine BM-DC” value is given as “inhibited; also recorded: abrogates” and the “CpG-ODN 1668-induced production of TNF-a by murine BM-DC” value is “inhibited; also recorded: abrogates”. In the data set with CD11c+ sorted BM-DC [1] (setting [8]), the “production of IL-6 by murine BM-DC” value is reported as “could not detect any” and the “production of TNF-a by murine BM-DC” value is listed as “could not detect any”.
As to Poly-D-lysine Hydrobromide, in the data set on human dendritic cells (setting [5]), the “LPS-induced production of IL-6 by human dendritic cells” value is “inhibited” and the “LPS-induced production of TNF-a by human dendritic cells” value is “inhibited”. Besides, in the data set on human dendritic cells, the “LPS-induced production of pro-inflammatory cytokines by human dendritic cells” value is “decrease”, the “production of IL-6 by human dendritic cells” value is recorded as “could not detect any” and the “production of TNF-a by human dendritic cells” value is given as “could not detect any”. Besides, in the data set on human dendritic cells (setting [6]), the “LPS-induced production of IL-6 by human dendritic cells” value is “inhibited” and the “LPS-induced production of TNF-a by human dendritic cells” value is on record as “inhibited”.
Poly-L-Arginine: in the data set with TNF-α and IL-6 (setting [9]), the “CpG-ODN-induced systemic production of IL-6” value is “inhibited; also recorded: prevents; also recorded: totally abolished” and the “CpG-ODN-induced systemic production of TNF-α” value is “inhibited; also recorded: prevents; also recorded: totally abolished”. Moreover, in the data set with TNF-a and IL-6, the “BCG/CpG-ODN-induced systemic production of IL-6” value was “inhibited; also recorded: prevents” and the “BCG/CpG-ODN-induced systemic production of TNF-a” value is reported as “inhibited; also recorded: prevents”. In data set [2] (setting [10]), the “LPS-induced production of IL-6 by murine BM-DC” value was “inhibited” and the “LPS-induced production of TNF-a by murine BM-DC” value is given as “inhibited”. In addition, the “LPS-induced production of pro-inflammatory cytokines by murine bone-marrow-derived dendritic cells” value in data set [2] (in vitro, mode of incubation not specified) is recorded as “decrease”. Moreover, in data set [2] (setting [11]), the “LPS-induced production of IL-6 by murine BM-DC” value is recorded as “inhibited” and the “LPS-induced production of TNF-a by murine BM-DC” value is given as “inhibited”. Further, in data set [2] (setting [12]), the “production of IL-6 by murine BM-DC” value is “could not detect any” and the “production of TNF-a by murine BM-DC” value was “could not detect any”. In addition, in the data set with human dendritic cells (setting [5]), the “LPS-induced production of IL-6 by human dendritic cells” value was “inhibited” and the “LPS-induced production of TNF-a by human dendritic cells” value is given as “inhibited”. Besides, in the data set on human dendritic cells, the “LPS-induced production of pro-inflammatory cytokines by human dendritic cells” value was “decrease”, the “production of IL-6 by human dendritic cells” value was “could not detect any” and the “production of TNF-a by human dendritic cells” value is on record as “could not detect any”. In addition, in the data set with human dendritic cells (setting [6]), the “LPS-induced production of IL-6 by human dendritic cells” value is recorded as “inhibited” and the “LPS-induced production of TNF-a by human dendritic cells” value is “inhibited”. In addition, in data set [3] (setting [13]), the “poly I:C-induced IL-6 production by human DC” value was “inhibited” and the “poly I:C-induced TNF-α production by human DC” value is recorded as “inhibited”. In data set [3], the “poly I:C-induced production of pro-inflammatory cytokines by human DC” value is listed as “abrogates; also recorded: inhibits” and the “production of IL-12/p70 by human DC” value was “could not detect any”. The “poly I:C-induced production of pro-inflammatory cytokines by human DC” value in data set [3] (listed as pR) is “can be inhibited”. Besides, in data set [3] (12 and 24 hours), the “production of IL-6 by human DC” value is given as “could not detect any” and the “production of TNF-α by human DC” value is on record as “could not detect any”. In the data set on CD11c+ sorted BM-DC [4] (setting [14]), the “CpG-ODN 1668-induced production of IL-6 by murine BM-DC” value is “inhibited; also recorded: abrogates” and the “CpG-ODN 1668-induced production of TNF-α by murine BM-DC” value is listed as “inhibited; also recorded: abrogates”. Further, in the data set on CD11c+ sorted BM-DC [4] (setting [15]), the “production of IL-6 by murine BM-DC” value is listed as “could not detect any; also recorded: neither TNF-α nor IL-6 were detectable” and the “production of TNF-α by murine BM-DC” value was “could not detect any; also recorded: neither TNF-α nor IL-6 were detectable”.
Regarding “Polyinosinic-polycytidylic acid [poly I:C, reference compound]”, in data set [3] (12 and 24 hours), the “production of IL-6 by human DC” value is given as “triggers the production” and the “production of TNF-α by human DC” value is given as “triggers the production”. The “production of IL-12/p70 by human DC” value in data set [3] is “produced IL-12/p70”.
